Measurements as given in patent US20040248926A1, “Preventive or remedy for pruritus” (priority 2001, published 2004).

Key:
Assay type in all cases: in vivo
Acute toxicity test = conditions: oral administration, male dd mice, mortality on the seventh day
Experimental: The test compound was administered orally or intraperitoneally to three/group male dd mice (body weight: 20±1 g). The minimum lethal dose (MLD) was obtained by observing the mortality on the seventh day after the administration.

[1] = system: compound 48/80-induced scratching; assay: Inhibitory effect on compound 48/80-induced scratching in mice; conditions: for number of the scratching: mean ± standard error; for effect on compound 48/80-induced scratching (in words): mice, p.o.
Experimental: The experiment was carried out according to the method of Kuraishi, et al. [Eur. J. Pharmacol., Vol. 275, pp. 229-233 (1995)).
(§1) Male ddY mice each weighing 19 to 22 g (supplied by Japan SLC) were used in the test. 25 to 26 mice were put in each plastic cage and reared by allowing them to freely take commercially available solid feed and water, in an animal room at 19-25° C., 30-70% humidity and a 12 h lighting cycle (lighting: 7:00 a.m. to 7:00 p.m.) a day.
0.1 ml of a solution of compound 48/80 (by Sigma) (0.1 mg of compound 48/80 was dissolved in 1 ml of physiological saline) was subcutaneously injected into the right-side back shoulder of each mouse, and all the mice were individually put in a transparent cage. For 1 hour immediately after this, the behavior of every mouse was recorded with an 8-mm video camera recorder. The video was reproduced, and the number of the scratching by its right hind paw was counted for 1 hour immediately after the subcutaneous administration, at intervals of 5 minutes or 10 minutes, and the data of every 5 or 10 minutes were totaled. Each mouse scratched itself a few times per about one second, and a series of these actions of each mouse was counted as one.
Compound 1 and Compound 2 were separately suspended in aqueous 0.5 w/v % methyl cellulose solution to have a concentration of 3 mg/ml. The suspension of Compound 1 was further diluted with aqueous 0.5w/v % methyl cellulose solution, and suspensions or solutions for administration each having an intended concentration were prepared. The solvent (aqueous 0.5 w/v % methyl cellulose solution) or the suspension or solution for administration was orally administered to each mouse, 30 minutes before the subcutaneous injection of the compound 48/80, and its volume was 10 ml/kg. The solvent-administered mice were a control group.

[2] = system: poly-L-arginine-induced scratching; assay: Inhibitory effect on poly-L-arginine-induced scratching; conditions: rats
Experimental: The experiment was carried out according to the method of Hayashi, et al. [Eur. J. Pharmacol., Vol. 425, pp. 219-227 (2001)].
as §1, with “Male Wistar rats of 5 weeks” for “Male ddY mice each weighing 19 to 22 g”, “test. 4” for “test. 25”, “to 6 rats” for “to 26 mice”
Every rat was shaven on the back, individually put in an acrylic monitor cage (200×145×170 mm), and acclimated therein for 30 minutes. 50 μl of a solution of poly-L-arginine (by Sigma) (4 mg of poly-L-arginine was dissolved in 1 ml of physiological saline) was intracutaneously injected into the interscapular region of each rat. For 30 minutes immediately after this, the behavior of every rat was recorded with a 8-mm video camera recorder. The video was reproduced, and the number of the scratching by its back paws at around the area where the solution had been intracutaneously injected was counted for 30 minutes immediately after the intracutaneous administration. Each rat scratched itself a few times per about one second, and a series of these actions of each rat was counted as one.
Compound 1 was suspended in aqueous 0.5 w/v % methyl cellulose solution to have a concentration of 0.1 or 1 mg/ml. […]

## C[C@](O)(C(=O)Nc1cccc2c1C(=O)c1sccc1CS2(=O)=O)C(F)(F)F [Compound 1, (S)-(+)-3,3,3-trifluoro-2-hydroxy-2-methyl-N-(5,5,10-trioxo-4,10-dihydrothieno[3,2c][1]benzothiepin-9-yl)propanamide]
Acute toxicity test
  minimum lethal dose (MLD): > 1000 mg/kg
[1]; 3 mg/kg p.o., 0-5 min after subcutaneous injection of compound 48/80, totaled, n = 4
  number of the scratching: 3 ± 1
[1]; 3 mg/kg p.o., 5-10 min after subcutaneous injection, totaled, n = 4
  number of the scratching: 7 ± 2
[1]; 3 mg/kg p.o., 10-15 min after subcutaneous injection, totaled, n = 4
  number of the scratching: 9 ± 1
[1]; 3 mg/kg p.o., 15-20 min after subcutaneous injection, totaled, n = 4
  number of the scratching: 12 ± 4
[1]; 3 mg/kg p.o., 20-25 min after subcutaneous injection, totaled, n = 4
  number of the scratching: 13 ± 4
[1]; 3 mg/kg p.o., 25-30 min after subcutaneous injection, totaled, n = 4
  number of the scratching: 14 ± 5
[1]; 3 mg/kg p.o., 30-35 min after subcutaneous injection, totaled, n = 4
  number of the scratching: 15 ± 5
[1]; 3 mg/kg p.o., 35-40 min after subcutaneous injection, totaled, n = 4
  number of the scratching: 15 ± 5
[1]; 3 mg/kg p.o., 40-45 min after subcutaneous injection, totaled, n = 4
  number of the scratching: 17 ± 6
[1]; 3 mg/kg p.o., 45-50 min after subcutaneous injection, totaled, n = 4
  number of the scratching: 18 ± 6
[1]; 3 mg/kg p.o., 50-55 min after subcutaneous injection, totaled, n = 4
  number of the scratching: 18 ± 6
[1]; 3 mg/kg p.o., 55-60 min after subcutaneous injection, totaled, n = 4
  number of the scratching: 18 ± 6
[1]; 10 mg/kg p.o., 0-5 min after subcutaneous injection, totaled, n = 4
  number of the scratching: 2 ± 1
[1]; 10 mg/kg p.o., 5-10 min after subcutaneous injection, totaled, n = 4
  number of the scratching: 6 ± 2
[1]; 10 mg/kg p.o., 10-15 min after subcutaneous injection, totaled, n = 4
  number of the scratching: 8 ± 2
[1]; 10 mg/kg p.o., 15-20 min after subcutaneous injection, totaled, n = 4
  number of the scratching: 9 ± 2
[1]; 10 mg/kg p.o., 20-25 min after subcutaneous injection, totaled, n = 4
  number of the scratching: 10 ± 3
[1]; 10 mg/kg p.o., 25-30 min after subcutaneous injection, totaled, n = 4
  number of the scratching: 10 ± 3
[1]; 10 mg/kg p.o., 30-35 min after subcutaneous injection, totaled, n = 4
  number of the scratching: 11 ± 3
[1]; 10 mg/kg p.o., 35-40 min after subcutaneous injection, totaled, n = 4
  number of the scratching: 11 ± 3
[1]; 10 mg/kg p.o., 40-45 min after subcutaneous injection, totaled, n = 4
  number of the scratching: 12 ± 3
[1]; 10 mg/kg p.o., 45-50 min after subcutaneous injection, totaled, n = 4
  number of the scratching: 12 ± 3
[1]; 10 mg/kg p.o., 50-55 min after subcutaneous injection, totaled, n = 4
  number of the scratching: 12 ± 3
[1]; 10 mg/kg p.o., 55-60 min after subcutaneous injection, totaled, n = 4
  number of the scratching: 12 ± 3
[1]; 30 mg/kg p.o., 0-5 min after subcutaneous injection, totaled, n = 4
  number of the scratching: 0 ± 0
[1]; 30 mg/kg p.o., 5-10 min after subcutaneous injection, totaled, n = 4
  number of the scratching: 0 ± 0
[1]; 30 mg/kg p.o., 10-15 min after subcutaneous injection, totaled, n = 4
  number of the scratching: 1 ± 1
[1]; 30 mg/kg p.o., 15-20 min after subcutaneous injection, totaled, n = 4
  number of the scratching: 2 ± 1
[1]; 30 mg/kg p.o., 20-25 min after subcutaneous injection, totaled, n = 4
  number of the scratching: 3 ± 1
[1]; 30 mg/kg p.o., 25-30 min after subcutaneous injection, totaled, n = 4
  number of the scratching: 3 ± 1
[1]; 30 mg/kg p.o., 30-35 min after subcutaneous injection, totaled, n = 4
  number of the scratching: 4 ± 1
[1]; 30 mg/kg p.o., 35-40 min after subcutaneous injection, totaled, n = 4
  number of the scratching: 4 ± 1
[1]; 30 mg/kg p.o., 40-45 min after subcutaneous injection, totaled, n = 4
  number of the scratching: 4 ± 1
[1]; 30 mg/kg p.o., 45-50 min after subcutaneous injection, totaled, n = 4
  number of the scratching: 4 ± 1
[1]; 30 mg/kg p.o., 50-55 min after subcutaneous injection, totaled, n = 4
  number of the scratching: 4 ± 1
[1]; 30 mg/kg p.o., 55-60 min after subcutaneous injection, totaled, n = 4
  number of the scratching: 4 ± 1
[1]
  effect on compound 48/80-induced scratching (in words): inhibited
[2]; 10 mg/kg p.o., 2 hours before intracutaneous poly-L-arginine, mean ± standard error, n = 8
  Number of Scratching Actions for 30 minutes: 14 ± 3
[2]; p.o.
  effect on poly-L-arginine-induced pruritic behavior (in words): inhibited

## CC(C)(O)C(=O)Nc1cccc2c1C(=O)c1sccc1CS2(=O)=O [Compound 2, 2-hydroxy-2-methyl-N-(5,5,10-trioxo-4,10-dihydrothieno [3,2c][1]benzothiepin-9-yl)propanamide]
[1]; 30 mg/kg p.o., 0-10 min after subcutaneous injection, totaled, n = 10
  number of the scratching: 10 ± 2
[1]; 30 mg/kg p.o., 10-20 min after subcutaneous injection, totaled, n = 10
  number of the scratching: 11 ± 3
[1]; 30 mg/kg p.o., 20-30 min after subcutaneous injection, totaled, n = 10
  number of the scratching: 14 ± 2
[1]; 30 mg/kg p.o., 30-40 min after subcutaneous injection, totaled, n = 10
  number of the scratching: 14 ± 2
[1]; 30 mg/kg p.o., 40-50 min after subcutaneous injection, totaled, n = 10
  number of the scratching: 14 ± 2
[1]; 30 mg/kg p.o., 50-60 min after subcutaneous injection, totaled, n = 10
  number of the scratching: 14 ± 2
[1]
  effect on compound 48/80-induced scratching (in words): inhibited
